Structures are written as SMILES.

The first assay deals with HIV-1 protease (Human immunodeficiency virus type 1 group M subtype B, UniProt P04585). The experiment in a line: biochemical.
Details: not given
Turning to `CNC(=O)NCC(=O)NCCC(C)(C)CN(CC(O)C(Cc1ccccc1)NC(=O)OC1COC2OCCC12)S(=O)(=O)c1ccc2c(c1)OCO2` (stereo not shown) [Compound 529], the Ki (usually a dissociation constant, usually derived from enzyme kinetics or from competition with a known ligand) was under 1 nM.

On to `CNC(=O)NCC(=O)NCCCC(C)(C)CN(CC(O)C(Cc1ccccc1)NC(=O)OC1COC2OCCC12)S(=O)(=O)c1ccc2c(c1)OCO2` (stereo not shown) [Compound 536], for which the Ki is under 1 nM.

Take `CNC(=O)NCC(=O)NCCCCC(C)(C)CN(CC(O)C(Cc1ccccc1)NC(=O)OC1COC2OCCC12)S(=O)(=O)c1ccc2c(c1)OCO2` (stereo not shown) [Compound 543]: the Ki is under 1 nM.

Staying with this assay, now noted: Table 12; HIV-1 protease; read-out: Ki.
On to `CCC(CCC1(C)OCCO1)CN(C[C@@H](O)[C@H](Cc1ccccc1)NC(=O)OC(C)(C)C)S(=O)(=O)c1ccc(OC)cc1` (mixture of isomers) [Compound 202, tert-ButylN-((1S,2R)-1-benzyl-3-[2-ethyl-4-(2-methyl-1,3-dioxolan-2-yl)butyl][(4-methoxyphenyl)sulfonyl]amino-2-hydroxypropyl)carbamate], for which the Ki was 1 to 10 nM.

`CCOC(=O)CNC(=O)NCCCC(C)(C)CN(CC(O)C(Cc1ccccc1)NC(=O)OC1COC2OCCC12)S(=O)(=O)c1ccc(OC)cc1` (mixture of isomers) [Compound 216, Ethyl (3S,4R)-1-[(3R,3aS,6aR)hexahydrofuro[2,3-b]furan-3-yloxy]-3-benzyl-4-hydroxy-6-[(4-methoxyphenyl)sulfonyl]-8,8-dimethyl-1,13-dioxo-2,6,12,14-tetraazahexadecan-16-oate and Ethyl (3S,4R)-1-[(3S,3aR,6aS)hexahydrofuro[2,3-b]furan-3-yloxy]-3-benzyl-4-hydroxy-6-[(4-methoxyphenyl)sulfonyl]-8,8-dimethyl-1,13-dioxo-2,6,12,14-tetraazahexadecan-16-oate]: the Ki is under 1 nM.

With `COc1ccc(S(=O)(=O)N(CC(C)CCC#N)CC(O)C(Cc2ccccc2)NC(=O)OC(C)(C)C)cc1` [Compound 2, ter-Butyl N-((1S,2R)-1-benzyl-3-[(2RS)-(4-cyano-2-methylbutyl)][(4-methoxyphenyl)sulfonyl]amino-2-hydroxypropyl)carbamate], the Ki is under 1 nM.

On to `CC(C)(CCC#N)CN(C[C@@H](O)[C@H](Cc1ccccc1)NC(=O)OC(C)(C)C)S(=O)(=O)c1cccc(N)c1` [Compound 5, tert-ButylN-((1S,2R)-3-[(3-aminophenyl)sulfonyl](4-cyano-2,2-dimethylbutyl)amino-1-benzyl-2-hydroxypropyl)carbamate], for which the Ki was under 1 nM.

Take `CC(C)(CCC#N)CN(C[C@@H](O)[C@H](Cc1ccccc1)NC(=O)OC(C)(C)C)S(=O)(=O)c1ccc2c(c1)OCO2` [Compound 6, {(1S,2R)-3-[(Benzo[1,3]dioxole-5-sulfonyl)-(4-cyano-2,2-dimethyl-butyl)-amino]-1-benzyl-2-hydroxy-propyl}-carbamic acid tert-butyl ester]: the Ki was under 1 nM.

For `CCNc1cccc(S(=O)(=O)N(CC(O)C(Cc2ccccc2)NC(=O)OC2COC3OCCC23)CC(C)(C)CCC#N)c1` [Compound 44, {(1S,2R)-3-[(3-N-ethylaminophenyl)sulfonyl]-(4-cyano-2,2-dimethyl-butyl)-amino]-1-benzyl-2-hydroxy-propyl}carbamic acid (3R,3aS,6aR)hexahydro-furo[2,3-b]furan-3-yl ester], the Ki was under 1 nM.

`COc1ccc(S(=O)(=O)N(CCC#N)C[C@@H](O)[C@H](Cc2ccccc2)NC(=O)OC(C)(C)C)cc1` [Compound 123]: the Ki is 10 to 100 nM.

For `CC(C)(C)OC(=O)N[C@@H](Cc1ccccc1)[C@H](O)CN(CCC#N)S(=O)(=O)c1cccc(N)c1` [Compound 127], the Ki lay within 10 to 100 nM.

On to `COc1ccc(S(=O)(=O)N(CC(O)[C@H](Cc2ccccc2)NC(=O)OC(C)(C)C)CC(C)(C)CCOC(N)=O)cc1` (stereo partly drawn) [Compound 234, ter-Butyl N-((1S,2R)-1-benzyl-3-(4-carbamoyloxy-2,2-dimethylbutyl)[(4-methoxyphenyl)sulfonyl]amino-2-hydroxypropyl)carbamate], for which the Ki was under 1 nM.

Regarding `COc1ccc(S(=O)(=O)N(CCC(C)CCC=O)C[C@@H](O)[C@H](Cc2ccccc2)NC(=O)OC(C)(C)C)cc1` (stereo partly shown) [Compound 277], the Ki was in the range of 1 to 10 nM.

Consider `CC(CCC=O)CCN(C[C@@H](O)[C@H](Cc1ccccc1)NC(=O)OC(C)(C)C)S(=O)(=O)c1ccc2c(c1)OCO2` (stereo partly shown) [Compound 278], for which the Ki was 1 to 10 nM.

Turning to `COc1ccc(S(=O)(=O)N(CCC(C)=O)C[C@@H](O)[C@H](Cc2ccccc2)NC(=O)OC(C)(C)C)cc1` [Compound 279], the Ki fell in the range of 10 to 100 nM.

The next assay deals with HIV-1 (strain IIIB). The experiment in a line: microbe, parasite or virus in culture. The settings on record: Human immunodeficiency virus 1, IIIB, MT4, MT-4 cells; comparison compound; read-out: IC50 in the MT-4 cell based assay. The class given is cell-based.
As for `CC(C)CN(CC(O)C(Cc1ccccc1)NC(=O)OC1CCOC1)S(=O)(=O)c1ccc(N)cc1` [Compound A, 4-amino-N-((2 syn, 3S)-2-hydroxy-4-phenyl-3-((S)-tetrahydrofuran-3-yloxycarbonylamino)-butyl)-N-isobutyl-benzenesulfonamide, reference compound], the IC50 – broadly, the concentration that inhibits the measured activity by half – was 80 nM.

Staying with this assay, now noted: Human immunodeficiency virus 1, IIIB, MT4, Table 12; anti-viral potency in MT-4 cells; read-out: IC50.
For the compound `CCC(CCC1(C)OCCO1)CN(C[C@@H](O)[C@H](Cc1ccccc1)NC(=O)OC(C)(C)C)S(=O)(=O)c1ccc(OC)cc1` (mixture of isomers) [Compound 202, tert-ButylN-((1S,2R)-1-benzyl-3-[2-ethyl-4-(2-methyl-1,3-dioxolan-2-yl)butyl][(4-methoxyphenyl)sulfonyl]amino-2-hydroxypropyl)carbamate], the IC50 is over 1000 nM.

On to `CCOC(=O)CNC(=O)NCCCC(C)(C)CN(CC(O)C(Cc1ccccc1)NC(=O)OC1COC2OCCC12)S(=O)(=O)c1ccc(OC)cc1` (mixture of isomers) [Compound 216, Ethyl (3S,4R)-1-[(3R,3aS,6aR)hexahydrofuro[2,3-b]furan-3-yloxy]-3-benzyl-4-hydroxy-6-[(4-methoxyphenyl)sulfonyl]-8,8-dimethyl-1,13-dioxo-2,6,12,14-tetraazahexadecan-16-oate and Ethyl (3S,4R)-1-[(3S,3aR,6aS)hexahydrofuro[2,3-b]furan-3-yloxy]-3-benzyl-4-hydroxy-6-[(4-methoxyphenyl)sulfonyl]-8,8-dimethyl-1,13-dioxo-2,6,12,14-tetraazahexadecan-16-oate], for which the IC50 was at most 100 nM.

In the case of `COc1ccc(S(=O)(=O)N(CC(C)CCC#N)CC(O)C(Cc2ccccc2)NC(=O)OC(C)(C)C)cc1` [Compound 2, ter-Butyl N-((1S,2R)-1-benzyl-3-[(2RS)-(4-cyano-2-methylbutyl)][(4-methoxyphenyl)sulfonyl]amino-2-hydroxypropyl)carbamate], the IC50 is over 1000 nM.

Take `CC(C)(CCC#N)CN(C[C@@H](O)[C@H](Cc1ccccc1)NC(=O)OC(C)(C)C)S(=O)(=O)c1cccc(N)c1` [Compound 5, tert-ButylN-((1S,2R)-3-[(3-aminophenyl)sulfonyl](4-cyano-2,2-dimethylbutyl)amino-1-benzyl-2-hydroxypropyl)carbamate]: the IC50 was over 1000 nM.

Staying with this assay, now noted: Human immunodeficiency virus 1, IIIB, MT4, Table 13; MT-4 cell based assay; class symbol; read-out: IC50.
For the compound `CC(C)(CCNC(=O)C(C)(C)C)CN(C[C@@H](O)[C@H](Cc1ccccc1)NC(=O)O[C@H]1CO[C@H]2OCC[C@H]21)S(=O)(=O)c1ccc2c(c1)OCO2` [Compound 374], the half-maximal inhibitory concentration (IC50) fell in the range of 1 to 10 nM.

As for `CC(C)(CCNC(=O)C1CCC1)CN(C[C@@H](O)[C@H](Cc1ccccc1)NC(=O)O[C@H]1CO[C@H]2OCC[C@H]21)S(=O)(=O)c1ccc2c(c1)OCO2` [Compound 375], the IC50 lay within 1 to 10 nM.

In the case of `CC(C)CC(=O)NCCC(C)(C)CN(C[C@@H](O)[C@H](Cc1ccccc1)NC(=O)O[C@H]1CO[C@H]2OCC[C@H]21)S(=O)(=O)c1ccc2c(c1)OCO2` [Compound 376], the IC50 was 1 to 10 nM.

`CC(C)(CCNC(=O)c1ccccc1)CN(C[C@@H](O)[C@H](Cc1ccccc1)NC(=O)O[C@H]1CO[C@H]2OCC[C@H]21)S(=O)(=O)c1ccc2c(c1)OCO2` [Compound 377]: the IC50 fell in the range of 1 to 10 nM.

Regarding `CC(C)(CCNC(=O)c1ccco1)CN(C[C@@H](O)[C@H](Cc1ccccc1)NC(=O)O[C@H]1CO[C@H]2OCC[C@H]21)S(=O)(=O)c1ccc2c(c1)OCO2` [Compound 378], the IC50 lay in the range of 1 to 10 nM.

Take `CC(C)(CCNC(=O)c1cccs1)CN(C[C@@H](O)[C@H](Cc1ccccc1)NC(=O)O[C@H]1CO[C@H]2OCC[C@H]21)S(=O)(=O)c1ccc2c(c1)OCO2` [Compound 379]: the IC50 fell in the range of 1 to 10 nM.

Staying with this assay, now noted: Human immunodeficiency virus 1, IIIB, MT4, Table 13; MT-4 cell based assay; numeric value, comparison compound; read-out: IC50.
Regarding `CC(C)CN(CC(O)C(Cc1ccccc1)NC(=O)OC1CCOC1)S(=O)(=O)c1ccc(N)cc1` [Compound A, 4-amino-N-((2 syn, 3S)-2-hydroxy-4-phenyl-3-((S)-tetrahydrofuran-3-yloxycarbonylamino)-butyl)-N-isobutyl-benzenesulfonamide, reference compound], the IC50 was 80 nM.

The assay is the same for the next values; noted with them: Human immunodeficiency virus 1, IIIB, MT4, antiviral assay, MT4 cells infected with HIV-1 (strain IIIB); class symbol; read-out: IC50 (activity range).
Turning to `CC(C)(CCCCN)CN(C[C@@H](O)[C@H](Cc1ccccc1)NC(=O)O[C@H]1CCOC1)S(=O)(=O)c1ccc2c(c1)OCO2` [Compound 295, (3S)-tetrahydro-3-furanyl N-(1S,2R)-3-[(1,3-benzodioxol-5-ylsulfonyl)(6-amino-2,2-dimethylhexyl)amino]-1-benzyl-2-hydroxypropylcarbamate], the IC50 was in the range of 100 to 500 nM.

Regarding `CC(C)(CCCCN)CN(CC(O)[C@H](Cc1ccccc1)NC(=O)OC1CCOC1)S(=O)(=O)c1ccc(N)cc1` (stereo partly drawn) [Compound 296, (3S)-tetrahydro-3-furanyl N-(1S,2R)-3-[(4-aminophenylsulfonyl)(6-amino-2,2-dimethylhexyl)amino]-1-benzyl-2-hydroxypropylcarbamate], the IC50 fell in the range of 100 to 500 nM.

On to `CC(C)(CCCCN)CN(CC(O)[C@H](Cc1ccccc1)NC(=O)OC1COCOC1)S(=O)(=O)c1ccc2c(c1)OCO2` (stereo partly drawn) [Compound 297, [1,3]-dioxan-5-yl N-(1S,2R)-3-[(1,3-benzodioxol-5-ylsulfonyl)(6-amino-2,2-dimethylhexyl)amino]-1-benzyl-2-hydroxypropylcarbamate], for which the IC50 is 100 to 500 nM.

As to `CC(C)(CCNC(=O)CCC1CCCC1)CN(C[C@@H](O)[C@H](Cc1ccccc1)NC(=O)O[C@H]1CO[C@H]2OCC[C@H]21)S(=O)(=O)c1ccc2c(c1)OCO2` [Compound 402], the IC50 was in the range of 100 to 500 nM.

Consider `CC(C)(CCNC(=O)CN)CN(CC(O)C(Cc1ccccc1)NC(=O)OC1COC2OCCC12)S(=O)(=O)c1ccc2c(c1)OCO2` [Compound 520, (3R,3aS,6aR)hexahydrofuro[2,3-b]furan-3-yl N-(1S,2R)-3-[(4-[(amino)acetylamino]-2,2-dimethylbutyl)(1,3-benzodioxol-5-ylsulfonyl)amino]-1-benzyl-2-hydroxypropylcarbamate], for which the IC50 was in the range of 100 to 500 nM.

`CC(=O)NCC(=O)NCCC(C)(C)CN(CC(O)C(Cc1ccccc1)NC(=O)OC1COC2OCCC12)S(=O)(=O)c1ccc2c(c1)OCO2` (stereo not shown) [Compound 523]: the IC50 was in the range of 100 to 500 nM.

For the compound `CN(C)C(=O)NCC(=O)NCCC(C)(C)CN(CC(O)C(Cc1ccccc1)NC(=O)OC1COC2OCCC12)S(=O)(=O)c1ccc2c(c1)OCO2` (stereo not shown) [Compound 526], the IC50 is 100 to 500 nM.

With `COCC(=O)NCC(=O)NCCC(C)(C)CN(CC(O)C(Cc1ccccc1)NC(=O)OC1COC2OCCC12)S(=O)(=O)c1ccc2c(c1)OCO2` (stereo not shown) [Compound 527], the IC50 is 100 to 500 nM.

In the case of `CC(C)(CCNC(=O)CNS(C)(=O)=O)CN(CC(O)C(Cc1ccccc1)NC(=O)OC1COC2OCCC12)S(=O)(=O)c1ccc2c(c1)OCO2` (stereo not shown) [Compound 528], the IC50 was in the range of 100 to 500 nM.

As for `CN(C)C(=O)NCC(=O)NCCCCC(C)(C)CN(CC(O)C(Cc1ccccc1)NC(=O)OC1COC2OCCC12)S(=O)(=O)c1ccc2c(c1)OCO2` (stereo not shown) [Compound 540], the IC50 is 100 to 500 nM.

Regarding `CC(C)(CCCCNC(=O)CNS(C)(=O)=O)CN(CC(O)C(Cc1ccccc1)NC(=O)OC1COC2OCCC12)S(=O)(=O)c1ccc2c(c1)OCO2` (stereo not shown) [Compound 542], the IC50 fell in the range of 100 to 500 nM.

In the case of `CN(C)C(=NC#N)NCCC(C)(C)CN(CC(O)C(Cc1ccccc1)NC(=O)OC1COC2OCCC12)S(=O)(=O)c1ccc2c(c1)OCO2` (stereo not shown) [Compound 563], the IC50 lay in the range of 100 to 500 nM.

Consider `CC(C)(CCOC(=O)NO)CN(CC(O)C(Cc1ccccc1)NC(=O)OC1COC2OCCC12)S(=O)(=O)c1ccc2c(c1)OCO2` (stereo not shown) [Compound 605], for which the IC50 was 100 to 500 nM.

(Values after patent US6617350B2, “Inhibitors of aspartyl protease” (priority 1999, dated 2003).)
